In patent US10758534B2 (Vertex Pharmaceuticals Incorporated, priority 2014, dated 2020):

Target: T1, F508del (Homo sapiens, UniProt P13569, DEL508-508)
T1 construct: expressed in transfected cells
Assay: Protocol 1: membrane potential optical assay (FLIPR III, voltage sensing dye), identification of potentiator compounds
Type: cell-based
Details: Table 3, compounds of Table 1
Outline: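 Membrane potential in forskolin-activated, temperature-rescued F508del NIH 3T3 cells is followed with a voltage-sensing dye on FLIPR III. A chloride ion gradient created at the single addition step provides the driving force, after prior compound treatment.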

T1 sequence (P13569 with tags, fused parts or gaps DEL508-508): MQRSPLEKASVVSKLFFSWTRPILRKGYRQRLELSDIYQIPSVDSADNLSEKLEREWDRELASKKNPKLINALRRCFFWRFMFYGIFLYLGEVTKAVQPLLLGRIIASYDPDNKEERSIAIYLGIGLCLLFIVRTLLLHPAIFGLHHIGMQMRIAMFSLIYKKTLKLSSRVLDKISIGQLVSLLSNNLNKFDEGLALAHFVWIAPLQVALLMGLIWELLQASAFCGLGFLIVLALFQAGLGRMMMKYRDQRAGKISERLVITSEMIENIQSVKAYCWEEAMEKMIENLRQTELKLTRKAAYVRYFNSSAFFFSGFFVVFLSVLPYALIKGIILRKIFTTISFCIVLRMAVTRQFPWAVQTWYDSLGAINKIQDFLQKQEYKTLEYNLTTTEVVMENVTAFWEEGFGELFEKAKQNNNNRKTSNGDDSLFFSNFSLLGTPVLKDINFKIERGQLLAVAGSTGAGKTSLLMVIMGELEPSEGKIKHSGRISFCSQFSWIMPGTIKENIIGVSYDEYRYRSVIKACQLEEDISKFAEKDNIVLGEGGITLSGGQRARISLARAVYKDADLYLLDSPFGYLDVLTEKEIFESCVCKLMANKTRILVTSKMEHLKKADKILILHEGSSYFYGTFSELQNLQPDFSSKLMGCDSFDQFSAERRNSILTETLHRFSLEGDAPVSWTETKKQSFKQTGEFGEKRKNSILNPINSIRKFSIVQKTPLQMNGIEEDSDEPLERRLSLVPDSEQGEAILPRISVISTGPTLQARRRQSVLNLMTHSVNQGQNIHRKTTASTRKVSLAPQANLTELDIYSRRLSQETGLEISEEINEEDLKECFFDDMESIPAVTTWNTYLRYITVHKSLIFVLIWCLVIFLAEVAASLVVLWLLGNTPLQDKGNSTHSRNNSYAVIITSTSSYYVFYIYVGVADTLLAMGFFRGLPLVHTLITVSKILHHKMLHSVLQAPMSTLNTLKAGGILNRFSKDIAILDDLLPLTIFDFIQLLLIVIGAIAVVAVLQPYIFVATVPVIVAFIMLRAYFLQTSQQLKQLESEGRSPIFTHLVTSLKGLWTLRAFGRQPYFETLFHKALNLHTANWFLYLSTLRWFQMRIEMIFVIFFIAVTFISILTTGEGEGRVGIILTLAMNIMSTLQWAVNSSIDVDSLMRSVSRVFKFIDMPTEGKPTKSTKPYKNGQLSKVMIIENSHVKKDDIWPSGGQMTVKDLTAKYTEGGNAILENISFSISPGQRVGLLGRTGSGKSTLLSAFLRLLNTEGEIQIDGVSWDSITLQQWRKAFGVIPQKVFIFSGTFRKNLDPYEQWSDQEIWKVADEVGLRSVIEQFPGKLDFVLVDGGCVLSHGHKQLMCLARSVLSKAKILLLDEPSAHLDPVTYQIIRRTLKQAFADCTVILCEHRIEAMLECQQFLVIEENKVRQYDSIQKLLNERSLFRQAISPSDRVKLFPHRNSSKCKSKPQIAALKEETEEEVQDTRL

Row | EC30 | SMILES
1 | +++ (“+++” means <3 uM) | CC1CN(c2ncccc2C(=O)NS(=O)(=O)c2cccc(Oc3cccc4ccccc34)n2)C(C)(C)C1 (centres unmarked) [Compound 1751, N—[[6-(1-naphthyloxy)-2-pyridyl]sulfonyl]-2-(2,2,4-trimethylpyrrolidin-1-yl)pyridine-3-carboxamide]
2 | ++ (“++” means between 3 uM and 10 uM) | Cc1cc(C)c(Oc2nc(-c3ccccc3)ccc2C(=O)NS(=O)(=O)c2cccc(NCCN(C)C)n2)c(C)c1 [Compound 1122, N-[[6-(2-dimethylaminoethylamino)-2-pyridyl]sulfonyl]-6-phenyl-2-(2,4,6-trimethylphenoxy)pyridine-3-carboxamide]
3 | +++ (“+++” means <3 uM) | Cc1cc(C)c(CN2C(C(=O)NS(=O)(=O)c3cc(N)ccc3C)c3ccccc3C2(C)C)c(C)c1 (centres unmarked) [Compound 840, N-(5-amino-2-methyl-phenyl)sulfonyl-3,3-dimethyl-2-[(2,4,6-trimethylphenyl)methyl]isoindoline-1-carboxamide]
4 | +++ (“+++” means <3 uM) | COc1cc(F)c(F)cc1-c1ccc(C(=O)NS(=O)(=O)c2ccc[nH]c2=O)c(N2C[C@@H](C)CC2(C)C)n1 [Compound 1904, 6-(4,5-difluoro-2-methoxy-phenyl)-N-[(2-oxo-1H-pyridin-3-yl)sulfonyl]-2-[(4S)-2,2,4-trimethylpyrrolidin-1-yl]pyridine-3-carboxamide]
5 | +++ (“+++” means <3 uM) | COc1ccccc1-c1ccc(C(=O)NS(=O)(=O)c2cccnc2N)c(N2C[C@@H](C)CC2(C)C)n1 [Compound 1962, N-[(2-amino-3-pyridyl)sulfonyl]-6-(2-methoxyphenyl)-2-[(4S)-2,2,4-trimethylpyrrolidin-1-yl]pyridine-3-carboxamide]
6 | +++ (“+++” means <3 uM) | CC(C)Oc1ccc(-c2ccc(C(=O)NS(=O)(=O)c3cccc(N)n3)c(N3CCCC(c4cccc(Cl)c4)C3)n2)cn1 (centres unmarked) [Compound 1339, N-[(6-amino-2-pyridyl)sulfonyl]-2-[3-(3-chlorophenyl)-1-piperidyl]-6-(6-isopropoxy-3-pyridyl)pyridine-3-carboxamide]
7 | +++ (“+++” means <3 uM) | C#Cc1cccc(Oc2cccc(S(=O)(=O)NC(=O)c3cccnc3N3CC(C)CC3(C)C)n2)c1 (centres unmarked) [Compound 1782, N—[[6-(3-ethynylphenoxy)-2-pyridyl]sulfonyl]-2-(2,2,4-trimethylpyrrolidin-1-yl)pyridine-3-carboxamide]
8 | +++ (“+++” means <3 uM) | Cc1nc(OC(C)C)ccc1-c1ccc(C(=O)NS(=O)(=O)c2cccc(N)n2)c(N2[C@H](C)CC[C@@H]2C)n1 [Compound 1623, N-[(6-amino-2-pyridyl)sulfonyl]-2-[(2R,5S)-2,5-dimethylpyrrolidin-1-yl]-6-(6-isopropoxy-2-methyl-3-pyridyl)pyridine-3-carboxamide]
9 | +++ (“+++” means <3 uM) | CCOc1cccc2c1CN(Cc1c(C)cccc1C)C2(C)C(=O)NS(=O)(=O)c1cccc(N)n1 (centres unmarked) [Compound 1498, N-[(6-amino-2-pyridyl)sulfonyl]-2-[(2,6-dimethylphenyl)methyl]-4-ethoxy-1-methyl-isoindoline-1-carboxamide]
10 | +++ (“+++” means <3 uM) | CC1CN(c2nc(-c3cnn(C(C)C)c3)ccc2C(=O)NS(=O)(=O)c2cccc(N)n2)C(C)(C)C1 (centres unmarked) [Compound 1067, N-[(6-amino-2-pyridyl)sulfonyl]-6-(1-isopropylpyrazol-4-yl)-2-(2,2,4-trimethylpyrrolidin-1-yl)pyridine-3-carboxamide]
11 | ++ (“++” means between 3 uM and 10 uM) | COc1ccc(-c2ccc(C(=O)NS(=O)(=O)c3cccc(N)n3)c(Oc3c(C)cc(C)cc3C)n2)cc1O [Compound 1251, N-[(6-amino-2-pyridyl)sulfonyl]-6-(3-hydroxy-4-methoxy-phenyl)-2-(2,4,6-trimethylphenoxy)pyridine-3-carboxamide]
12 | +++ (“+++” means <3 uM) | COc1ccc(COc2cccc(S(=O)(=O)NC(=O)c3cccnc3N3CC(C)CC3(C)C)n2)cc1Cl (centres unmarked) [Compound 1778, N—[[6-[(3-chloro-4-methoxy-phenyl)methoxy]-2-pyridyl]sulfonyl]-2-(2,2,4-trimethylpyrrolidin-1-yl)pyridine-3-carboxamide]
13 | +++ (“+++” means <3 uM) | COc1ncccc1S(=O)(=O)NC(=O)c1ccc(-c2cc(F)cc(OC(C)C)c2)nc1-c1ccc(C)cc1 [Compound 798, 6-(3-fluoro-5-isopropoxy-phenyl)-N-[(2-methoxy-3-pyridyl)sulfonyl]-2-(p-tolyl)pyridine-3-carboxamide]
14 | ++ (“++” means between 3 uM and 10 uM) | CC(C)Oc1ccc(-c2ccc(C(=O)NS(=O)(=O)c3cccc(N)n3)c(N3CCC(Oc4ccccc4)C3)n2)cn1 (centres unmarked) [Compound 1092, N-[(6-amino-2-pyridyl)sulfonyl]-6-(6-isopropoxy-3-pyridyl)-2-(3-phenoxypyrrolidin-1-yl)pyridine-3-carboxamide]
15 | +++ (“+++” means <3 uM) | CC1CN(c2nc(C(C)(C)C)c(C3=COCCC3)cc2C(=O)NS(=O)(=O)c2cccc(N)n2)C(C)(C)C1 (centres unmarked) [Compound 1487, N-[(6-amino-2-pyridyl)sulfonyl]-6-tert-butyl-5-(3,4-dihydro-2H-pyran-5-yl)-2-(2,2,4-trimethylpyrrolidin-1-yl)pyridine-3-carboxamide]
16 | +++ (“+++” means <3 uM) | CCOc1cccc2c1CN(Cc1c(C)cc(C)cc1C)C2(C)C(=O)NS(=O)(=O)c1cscn1 (centres unmarked) [Compound 1542, 4-ethoxy-1-methyl-N-thiazol-4-ylsulfonyl-2-[(2,4,6-trimethylphenyl)methyl]isoindoline-1-carboxamide]
17 | +++ (“+++” means <3 uM) | CCOc1cccc2c1CN(Cc1ccccc1C)C2(C)C(=O)NS(=O)(=O)c1cccc(N)n1 (centres unmarked) [Compound 1408, N-[(6-amino-2-pyridyl)sulfonyl]-4-ethoxy-1-methyl-2-(o-tolylmethyl)isoindoline-1-carboxamide]
18 | + (“+” means greater than 10 uM) | Cc1cc(C)c(Oc2nc(-c3ccc(CO)cc3)ccc2C(=O)NS(=O)(=O)c2cccc(N)n2)c(C)c1 [Compound 1183, N-[(6-amino-2-pyridyl)sulfonyl]-6-[4-(hydroxymethyl)phenyl]-2-(2,4,6-trimethylphenoxy)pyridine-3-carboxamide]
19 | +++ (“+++” means <3 uM) | CC(C)COc1cc(F)cc(-c2ccc(C(=O)NS(=O)(=O)c3cccc(N)n3)c(N3C[C@H](C)CC34CCC4)n2)c1 [Compound 1737]
20 | +++ (“+++” means <3 uM) | CCC1CCCN(c2nc(-c3ccc(OC(C)C)nc3)ccc2C(=O)NS(=O)(=O)c2cccc(N)n2)C1 (centres unmarked) [Compound 1023, N-[(6-amino-2-pyridyl)sulfonyl]-2-(3-ethyl-1-piperidyl)-6-(6-isopropoxy-3-pyridyl)pyridine-3-carboxamide]

Row | SMILES | EC30
21 | CC(C)COc1cc(F)cc(-c2ccc(C(=O)NS(=O)(=O)c3cccc(N)n3)c(OC3COC3)n2)c1 [Compound 872, N-[(6-amino-2-pyridyl)sulfonyl]-6-(3-fluoro-5-isobutoxy-phenyl)-2-(oxetan-3-yloxy)pyridine-3-carboxamide] | ++ (“++” means between 3 uM and 10 uM)
22 | CC(C)COc1cc(F)cc(-c2ccc(C(=O)NS(=O)(=O)c3cccc(N)n3)c(OCCc3cccnc3)n2)c1 [Compound 1654, N-[(6-amino-2-pyridyl)sulfonyl]-6-(3-fluoro-5-isobutoxy-phenyl)-2-[2-(3-pyridyl)ethoxy]pyridine-3-carboxamide] | +++ (“+++” means <3 uM)
23 | CC(C)COc1cc(F)cc(-c2ccc(C(=O)NS(=O)(=O)c3cccc(N)n3)c(OC3C(C)CCCC3C)n2)c1 (centres unmarked) [Compound 978, N-[(6-amino-2-pyridyl)sulfonyl]-2-(2,6-dimethylcyclohexoxy)-6-(3-fluoro-5-isobutoxy-phenyl)pyridine-3-carboxamide] | +++ (“+++” means <3 uM)
24 | CC(C)(C)c1ccc(C(=O)NS(=O)(=O)c2cccc(N)n2)c(N2CC3CC(C3)C2)n1 [Compound 1401, N-[(6-amino-2-pyridyl)sulfonyl]-2-(3-azabicyclo[3.1.1]heptan-3-yl)-6-tert-butyl-pyridine-3-carboxamide] | +++ (“+++” means <3 uM)
25 | CC(C)COc1cc(F)cc(-c2ccc(C(=O)NS(=O)(=O)c3cccc(N)n3)c(OC3CCOCC3)n2)c1 [Compound 1324, N-[(6-amino-2-pyridyl)sulfonyl]-6-(3-fluoro-5-isobutoxy-phenyl)-2-tetrahydropyran-4-yloxy-pyridine-3-carboxamide] | +++ (“+++” means <3 uM)
26 | CC(C)COc1cc(F)cc(-c2ccc(C(=O)NS(=O)(=O)c3cccc(N)n3)c(N3CCCC4(CC4)C3)n2)c1 [Compound 953, N-[(6-amino-2-pyridyl)sulfonyl]-2-(7-azaspiro[2.5]octan-7-yl)-6-(3-fluoro-5-isobutoxy-phenyl)pyridine-3-carboxamide] | +++ (“+++” means <3 uM)
27 | CC(C)COc1cc(F)cc(-c2ccc(C(=O)NS(=O)(=O)c3ccn[nH]3)c(N3C[C@H](C)C[C@@H](C)C3)n2)c1 [Compound 942, 2-[(3R,5R)-3,5-dimethyl-1-piperidyl]-6-(3-fluoro-5-isobutoxy-phenyl)-N-(1H-pyrazol-5-ylsulfonyl)pyridine-3-carboxamide] | +++ (“+++” means <3 uM)
28 | CC(C)COc1cc(F)cc(-c2ccc(C(=O)NS(=O)(=O)c3cccc(N)n3)c(N3C[C@@H](F)C[C@H]3C)n2)c1 [Compound 1362, N-[(6-amino-2-pyridyl)sulfonyl]-6-(3-fluoro-5-isobutoxy-phenyl)-2-[(2R,4S)-4-fluoro-2-methyl-pyrrolidin-1-yl]pyridine-3-carboxamide] | +++ (“+++” means <3 uM)
29 | CC(C)COc1cc(F)cc(-c2ccc(C(=O)NS(=O)(=O)N3CCC(S(C)(=O)=O)C3)c(N3C[C@@H](C)CC3(C)C)n2)c1 (stereo partly drawn) [Compound 1560, 6-(3-fluoro-5-isobutoxy-phenyl)-N-(3-methylsulfonylpyrrolidin-1-yl)sulfonyl-2-[(4S)-2,2,4-trimethylpyrrolidin-1-yl]pyridine-3-carboxamide] | +++ (“+++” means <3 uM)
